# Results taken from ChEMBL document CHEMBL1144234, “Novel design principle validated: glucopyranosylidene-spiro-oxathiazole as new nanomolar inhibitor of glycogen phosphorylase, potential antidiabetic agent” (Bioorg Med Chem Lett, 2008).
# Target: T1, Glycogen phosphorylase, muscle form (Oryctolagus cuniculus, UniProt P00489)
# T1 sequence (P00489 whole entry): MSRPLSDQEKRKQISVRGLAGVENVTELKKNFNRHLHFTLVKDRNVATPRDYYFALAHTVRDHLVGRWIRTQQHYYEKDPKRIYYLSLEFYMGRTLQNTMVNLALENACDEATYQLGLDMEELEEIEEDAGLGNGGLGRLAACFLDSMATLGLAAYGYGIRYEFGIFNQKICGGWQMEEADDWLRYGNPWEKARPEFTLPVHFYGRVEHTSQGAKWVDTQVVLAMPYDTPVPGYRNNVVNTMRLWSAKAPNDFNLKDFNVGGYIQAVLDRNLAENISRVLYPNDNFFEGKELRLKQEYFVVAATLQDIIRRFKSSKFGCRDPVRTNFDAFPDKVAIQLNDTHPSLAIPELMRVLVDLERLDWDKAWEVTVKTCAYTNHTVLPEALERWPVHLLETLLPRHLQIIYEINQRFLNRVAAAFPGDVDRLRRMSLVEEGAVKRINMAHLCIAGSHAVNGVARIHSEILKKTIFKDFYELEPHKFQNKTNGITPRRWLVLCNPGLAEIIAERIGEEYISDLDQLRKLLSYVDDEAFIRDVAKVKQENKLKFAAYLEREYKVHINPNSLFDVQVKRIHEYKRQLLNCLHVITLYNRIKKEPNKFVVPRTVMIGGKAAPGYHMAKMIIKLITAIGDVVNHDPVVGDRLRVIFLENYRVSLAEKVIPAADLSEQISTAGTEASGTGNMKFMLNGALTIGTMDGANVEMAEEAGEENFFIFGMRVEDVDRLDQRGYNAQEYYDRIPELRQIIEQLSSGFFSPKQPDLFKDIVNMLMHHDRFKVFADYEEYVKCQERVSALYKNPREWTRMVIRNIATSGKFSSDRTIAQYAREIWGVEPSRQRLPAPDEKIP
# Description: Inhibition of rabbit muscle glycogen phosphorylase b
row,SMILES,Ki [µM]
1,CC(=O)NC(=O)N[C@@H]1O[C@H](CO)[C@@H](O)[C@H](O)[C@H]1O,305
2,O=C(N[C@@H]1O[C@H](CO)[C@@H](O)[C@H](O)[C@H]1O)c1cccc2ccccc12,444
3,OC[C@H]1O[C@]2(ON=C(c3ccc(F)cc3)S2)[C@H](O)[C@@H](O)[C@@H]1O,28
4,O=C(NC(=O)c1cccc2ccccc12)N[C@@H]1O[C@H](CO)[C@@H](O)[C@H](O)[C@H]1O,5
5,O=C(NC(=O)c1ccc2ccccc2c1)N[C@@H]1O[C@H](CO)[C@@H](O)[C@H](O)[C@H]1O,0.35
6,OC[C@H]1O[C@]2(ON=C(c3ccccc3)S2)[C@H](O)[C@@H](O)[C@@H]1O,26
7,COc1ccc(C2=NO[C@]3(O[C@H](CO)[C@@H](O)[C@H](O)[C@H]3O)S2)cc1,8
8,"O=C(NC1O[C@H](CO)[C@@H](O)[C@H](O)[C@H]1O)c1ccccc1 (single isomer, unassigned)",81
9,"CC(=O)NC1O[C@H](CO)[C@@H](O)[C@H](O)[C@H]1O (single isomer, unassigned)",32
